Measurements from patent US11523610B2, “Regulating plant growth using a diapocarotenoid” (King Abdullah University of Science and Technology, priority 2018, dated 2022).

Assays:
[1] = test system: Arabidopsis seedlings (root gravitropism); experiment: Root gravitropism of NPA treated seedlings; format: in vivo; settings: 5 DAG seedlings, 1 μM NPA plus 20 μM anchorene
Procedure: (§1) To determine if the effect of anchorene on ANR development is caused by changes in auxin distribution, the activity of anchorene in the presence of NPA was evaluated. […] Vertical grown 5 DAG seedlings on half MSO with indicated treatments were analyzed. The orientation of root growth was measured and then was assigned to one of twelve 30° sectors. […] The auxin efflux carrier PIN3 plays an important role in LR initiation and emergence. Therefore, the effect of anchorene on PIN3 using the pPIN3::PIN3-GFP marker line was examined.

PIN3 = experiment: PIN3-GFP fluorescence in ANR primordia (pPIN3::PIN3-GFP marker line); format: in vivo, Arabidopsis; settings: 20 μM anchorene
Procedure: For fluorescence intensity quantification of pDR5Rev::GFP and pPIN3::PIN3-GFP marker lines, ImageJ software (rsbweb.nih.gov/ij/) was used after taking confocal microscopy photos. All calculations are background subtracted.
as §1

maize = experiment: Maize hydroponic growth with anchorene; format: in vivo
Procedure: FIGS. 20A-C show anchorene promotes root growth in maize according to one or more embodiments of the present disclosure. (A) represents the timeline for the hydroponic system for maize growing and anchorene treatment. […] (C) is a histogram quantifying the root and shoot length (cm) of maize seedlings with or without anchorene treatment
Arabidopsis is a dicot model plant. To test the effect of anchorene on monocot plant and crops, the biological functions of anchorene was evaluated on two important crops, rice and maize, under hydroponic conditions. Excitingly, a clear effect of anchorene on rice primary root and crown root growth (FIGS. 19B-E). A clear effect on shoot growth was not observed during this period, which might indicate anchorene specifically regulates root architecture. Similar effect was also examined in maize (FIGS. 20B-C). […] Root growth promoting not only could better anchor the plant, but also increase the volume of the plant root which will facilitate the water and nutrient absorption for the plant.

[2] = test system: Arabidopsis collet transcriptome; experiment: RNA-Seq of collet transcriptome; format: in vivo; settings: collets
Procedure: For anchorene and NPA treatment, Col-0 seedlings were vertically grown on half MSO (with 0.5% sucrose+1% agar, 0.5 g/L MES, pH 5.7) plates supplemented with 20 μM anchorene or 1 μM NPA for 5 days. RAM excision treatment was applied by excising the RAM from 4.5-day old Col-0 seedlings, and then tissue was collected 12 hours after excision (5 DAG). About 2 mm of tissue at the collet site (see FIG. 11I) was collected at 5 DAG for all chemicals and physical treatment. Tissue from approximately 50 seedlings were used for each sample. Total RNA was extracted by Direct-zolTM RNA MiniPrep Plus (200 Preps) w/Zymo-Spin™ (ZYMO research). 100 ng total RNA were used for RNA Hi-seq 4000 (ILLUMINA). Each treatment includes three independent replicates.
Prior to the analysis of RNA-Seq data, the adaptor sequences and low-quality ends of sequenced reads were trimmed using Trimmomatic v0.32 and quality-checked using FastQC v0.11 (www.bioinformatics.babraham.ac.uk/projects/fastqc). To quantify the expression level of genes, the remaining reads were pseudo-aligned to the publicly available TAIR10 A. thaliana transcriptome (release 34) using kallisto v0.43.0. The estimated read counts and calculated transcripts per million (TPM) were subsequently passed to sleuth v0.28.1 for differential expression analysis. […] Gene ontology and KEGG pathway enrichment analyses were conducted using clusterProfiler and Pathview. RNA-Seq data can be accessed at NCBI via BioProject ID PRJNA489360.

rice (Nipponbare) = experiment: Rice hydroponic growth with anchorene; format: in vivo; settings: 20 μM anchorene, 6 days
Procedure: FIGS. 19A-E show anchorene promotes root growth in rice according to one or more embodiments of the present disclosure. […] Color photographs (B) and (C) show the comparison of the whole rice plant (B) and the root structure (C) under Mock and Anchorene treated conditions. (D) and (E) show quantification (cm) of the primary root length (D) and shoot length (E) under Mock and Anchorene treated conditions. 20 μM anchorene was used. The Nipponbare ecotype rice seeds were germinated for 4 days, and then transferred to Hoagland media hydroponic system with or without anchorene treatment for another 6 days. Anchorene was changed every 2 days for three times.
For rice, sterilized Nipponbare seeds were kept at 30° C. in darkness for 1 day to stimulate germination and transferred to Petri dishes with half strength Murashige and Skoog (MS) media (with 0.5 g/L MES, pH 5.7) and autoclaved filter paper. Dishes were incubated in darkness for 2 days then exposed to light for 1 day in PERCIVAL® growth chamber (12 h light/12 h dark, 26° C., 55% humidity, 500 umol.m^−2.s^−1). Uniform, healthy rice seedlings were transferred to hydroponic culture (Hoagland) supplied with acetone (Mock) or 20 μM anchorene. […] Crown roots number, as well as shoot and root length and fresh weight were recorded to perform the phenotyping.

C\C(C=O)=C/C=C/C=C(\C)C=O [anchorene, 12,12′-diapocarotene-12,12′-dial]
gravitropism in NPA treated seedlings [1]: largely restored | PIN3 levels (PIN3-GFP fluorescent intensity in ANR primordia) (PIN3): significantly increased | growth of primary root and lateral roots in maize (maize): greatly promoted | genes with opposite effects of RAM excision and anchorene treatment ([2]; 20 μM anchorene): 36 genes | genes with similar response to RAM excision and anchorene treatment ([2]; 20 μM anchorene): 1459 genes | overlapping genes on which NPA and anchorene exert the opposite effect ([2]; 20 μM anchorene, 1 μM NPA): 2791 (83%) genes | overlapping genes whose expression level is affected by NPA and anchorene ([2]; 20 μM anchorene, 1 μM NPA, 5 days): 3355 genes | effect on auxin biosynthesis genes ([2]; anchorene application): induction of many auxin biosynthesis genes | rice primary root and crown root growth (rice (Nipponbare)): clear effect | rice shoot growth (rice (Nipponbare)): not observed
